# Reference: US7781480B2, “Indole derivatives and their metal conjugates and uses thereof” (VLife Sciences Technologies Pvt. Ltd., priority 2007, dated 2010)
# Key:
# [1] = tested on: BxPC3 (wild type K-Ras pancreatic cancer); test: MTT cell growth inhibition assay, BxPC3; format: cell-based; conditions: BxPC3, 72 h; read-out: MTT Assay EC50 after 72 h
# Experimental: (§1) COLO 357 cells (K-ras mutated pancreatic cancer) were seeded at a density of 3×10^3 cells per well in 96-well microtiter culture plates. After overnight incubation, medium was removed and replaced with fresh medium containing different concentrations of compounds (0-100 μmol/L) diluted from a 10 mmol/L stock. On completion of 72 hours of incubation, 20 μL of 3-(4,5-dimethylthiazol-2-yl)-2,5-diphenyltetrazolium bromide (MTT) solution (5 mg/mL in PBS) were added to each well and incubated further for 2 hours. Upon termination, the supernatant was aspirated and the MTT formazan formed by metabolically viable cells was dissolved in 100 μL of isopropanol. The plates were mixed for 30 minutes on a gyratory shaker, and absorbance was measured at 595 nm using a plate reader (TECAN, Durham, N.C.). A similar protocol was used for BxPC3 (wild type K-Ras pancreatic cancer), PC3 (prostate cancer) and HCT (colon cancer) cell lines.
# (§2) Cells were plated as described above and allowed to attach overnight. The cells were replaced with fresh medium containing 25 μmol/L of Compound 1 and Compound 2 for 72 hours. The effect of Compound 1 and Compound 2 pretreatment on cell viability was examined by the MTT assay method as described above.
# [2] = tested on: COLO 357 cells (K-ras mutated pancreatic cancer); test: MTT cell growth inhibition assay, COLO357; format: cell-based; conditions: COLO357, 72 h; read-out: MTT Assay EC50 after 72 h
# Experimental: as §1, §2
# [3] = tested on: HCT116 (colon cancer); test: MTT cell growth inhibition assay, HCT116; format: cell-based; conditions: HCT116, 72 h; read-out: MTT Assay EC50 after 72 h
# Experimental: as §1, §2
# [4] = tested on: PC3 (prostate cancer); test: MTT cell growth inhibition assay, PC3; format: cell-based; conditions: PC3, 72 h; read-out: MTT Assay EC50 after 72 h
# Experimental: as §1, §2
# [5] = tested on: BxPC3; test: Quantification of apoptosis by ELISA, BxPC3; format: cell-based; conditions: BxPC3, 25 mmol/L, 72 hours; control 0.50
# Experimental: (§3) The Cell Apoptosis ELISA Detection Kit (Roche, Palo Alto, Calif.) was used to detect apoptosis in COLO357 cells, with different treatments according to the manufacturer's protocol. Briefly, COLO357 cells were treated with […] of Compound 1 and Compound 2 for 72 hours. After treatment, the cytoplasmic histone DNA fragments from COLO 357 cells with different treatments were extracted and bound to immobilized anti-histone antibody.
# (§4) Subsequently, the peroxidase-conjugated anti-DNA antibody was used for the detection of immobilized histone DNA fragments. After addition of substrate for peroxidase, the spectrophotometric absorbance of the samples was determined using ULTRA Multifunctional Microplate Reader (TECAN) at 405 nm. A similar protocol was used for BxPC3, PC3 and HCT116 cell lines.
# [6] = tested on: COLO357 cells; test: Quantification of apoptosis by ELISA, COLO357; format: cell-based; conditions: COLO357, 72 hours; control 0.75
# Experimental: as §3, §4
# [7] = tested on: HCT116; test: Quantification of apoptosis by ELISA, HCT116; format: cell-based; conditions: HCT116, 72 hours; control 0.35
# Experimental: as §3, §4
# [8] = tested on: PC3; test: Quantification of apoptosis by ELISA, PC3; format: cell-based; conditions: PC3, 72 hours; control 0.50
# Experimental: as §3, §4
# [9] = tested on: Akt; test: Akt assay (ELISA based activity kit); format: biochemical
# Experimental: Akt activity kit is an ELISA based activity kit that utilizes biotinylated peptide substrate (GRPRTSSFAEG) that is phosphorylated on second serine by Akt1, Akt2, Akt3, SGK and MSK1. Biotinylated Akt substrate and sample containing Akt are incubated in presence of ATP in the wells of a streptavidin coated 96-well plate, which allows for phosphorylation and substrate capture in a single step. The phosphorylated substrate is detected using phosphoserine detection antibody followed by HRP-antibody conjugate and color development with TMB substrate. Sensitivity is increased by addition of ELISA stop solution and relative activity is determined by reading dual absorbance at 450/540 nm or 450/595 nm. Inhibition profiles can be generated based on Akt activity in the presence and absence of test inhibitor(s).
EC50 [1],EC50 [2],EC50 [3],EC50 [4],Substance,O.D. Of Histone/DNA at 405 nm [5],O.D. Of Histone/DNA at 405 nm [6],O.D. Of Histone/DNA at 405 nm [7],O.D. Of Histone/DNA at 405 nm [8],Akt inhibitory activity [9]
28.9 µM,14.6 µM,11.7 µM,28.8 µM,Cu(II) complex of 2-amino-3-[(Z)—N′-(1H-indol-3-ylmethylidene)hydrazinecarbonyl]-propanoic acid [Compound 1],2.20,1.90,1.60,0.60,micromolar range
18.9 µM,14.3 µM,14.1 µM,16.6 µM,"Cu(II) complex of (2Z)-2-(N-hydroxyimino)-N′-[(1Z)-1H-indol-3-ylmethylidene]-1,3-dioxobutanehydrazide [Compound 2]",1.80,2.00,1.75,1.90,micromolar range
